Test results: the NIST ThermoML archive (doi:10.1021/je300175w)
Several values for one entry are separate records, joined by “and”; a condition that tells them apart may be missing. Identical values can stand only once.

Assay: mn = molality of the nth substance listed, in mol/kg
Conditions: 101 kPa, Liquid; for mass density: Vibrating tube method; for speed of sound: Sing-around technique in a fixed-path interferometer

CC(C)(CO)CO [2,2-dimethyl-1,3-propanediol] + O
Conditions	mass density	speed of sound
273.15 K, m1 = 0.1001	1000.25 kg/m3	–
273.15 K, m1 = 0.2006	1000.57 kg/m3	–
273.15 K, m1 = 0.2997	1000.91 kg/m3	–
273.15 K, m1 = 0.4021	1001.28 kg/m3	–
273.15 K, m1 = 0.5001	1001.66 kg/m3	–
273.15 K, m1 = 0.6007	1002.07 kg/m3	–
278.15 K, m1 = 0.1001	–	1435.8 m/s
278.15 K, m1 = 0.2006	–	1445.4 m/s
278.15 K, m1 = 0.2997	–	1454.5 m/s
278.15 K, m1 = 0.4021	–	1463.8 m/s
278.15 K, m1 = 0.5001	–	1472.5 m/s
278.15 K, m1 = 0.6007	–	1481.3 m/s
283.15 K, m1 = 0.1001	999.968 kg/m3 and 999.967 kg/m3	1456.2 m/s
283.15 K, m1 = 0.2006	1000.26 kg/m3	1464.9 m/s
283.15 K, m1 = 0.2997	1000.57 kg/m3	1473.3 m/s and 1473.4 m/s
283.15 K, m1 = 0.4021	1000.92 kg/m3	1481.9 m/s
283.15 K, m1 = 0.5001	1001.26 kg/m3	1489.9 m/s
283.15 K, m1 = 0.6007	1001.63 kg/m3 and 1001.64 kg/m3	1497.9 m/s and 1498 m/s
288.15 K, m1 = 0.1001	999.35 kg/m3 and 999.351 kg/m3	1474.1 m/s and 1474.2 m/s
288.15 K, m1 = 0.2006	999.623 kg/m3	1482.2 m/s
288.15 K, m1 = 0.2997	999.911 kg/m3 and 999.913 kg/m3	1490 m/s and 1489.9 m/s
288.15 K, m1 = 0.4021	1000.23 kg/m3	1497.8 m/s
288.15 K, m1 = 0.5001	1000.54 kg/m3 and 1000.55 kg/m3	1505.2 m/s
288.15 K, m1 = 0.6007	1000.88 kg/m3	1512.6 m/s
293.15 K, m1 = 0.1001	998.435 kg/m3 and 998.438 kg/m3 and 998.44 kg/m3	1489.9 m/s
293.15 K, m1 = 0.2006	998.688 kg/m3 and 998.69 kg/m3 and 998.693 kg/m3	1497.4 m/s and 1497.3 m/s
293.15 K, m1 = 0.2997	998.956 kg/m3 and 998.958 kg/m3 and 998.96 kg/m3	1504.5 m/s
293.15 K, m1 = 0.4021	999.245 kg/m3 and 999.25 kg/m3 and 999.252 kg/m3	1511.8 m/s
293.15 K, m1 = 0.5001	999.536 kg/m3 and 999.541 kg/m3 and 999.543 kg/m3	1518.5 m/s
293.15 K, m1 = 0.6007	999.846 kg/m3 and 999.849 kg/m3 and 999.851 kg/m3	1525.3 m/s
298.15 K, m1 = 0.1001	997.263 kg/m3 and 997.264 kg/m3 and 997.261 kg/m3	1503.7 m/s
298.15 K, m1 = 0.2006	997.499 kg/m3	1510.5 m/s and 1510.6 m/s
298.15 K, m1 = 0.2997	997.744 kg/m3 and 997.745 kg/m3 and 997.742 kg/m3	1517.1 m/s and 1517.2 m/s
298.15 K, m1 = 0.4021	998.013 kg/m3 and 998.015 kg/m3	1523.8 m/s and 1523.9 m/s
298.15 K, m1 = 0.5001	998.28 kg/m3 and 998.279 kg/m3 and 998.282 kg/m3	1530 m/s and 1530.1 m/s
298.15 K, m1 = 0.6007	998.56 kg/m3 and 998.559 kg/m3 and 998.562 kg/m3	1536.2 m/s and 1536.3 m/s
303.15 K, m1 = 0.1001	995.849 kg/m3 and 995.85 kg/m3	1515.6 m/s
303.15 K, m1 = 0.2006	996.066 kg/m3 and 996.067 kg/m3	1521.9 m/s
303.15 K, m1 = 0.2997	996.293 kg/m3 and 996.294 kg/m3	1528 m/s
303.15 K, m1 = 0.4021	996.538 kg/m3 and 996.539 kg/m3	1534.1 m/s
303.15 K, m1 = 0.5001	996.781 kg/m3	1539.9 m/s and 1539.8 m/s
303.15 K, m1 = 0.6007	997.037 kg/m3 and 997.036 kg/m3	1545.6 m/s and 1545.5 m/s
308.15 K, m1 = 0.1001	994.216 kg/m3 and 994.215 kg/m3	1525.8 m/s
308.15 K, m1 = 0.2006	994.415 kg/m3 and 994.416 kg/m3	1531.6 m/s and 1531.5 m/s
308.15 K, m1 = 0.2997	994.624 kg/m3 and 994.621 kg/m3	1537.2 m/s and 1537.1 m/s
308.15 K, m1 = 0.4021	994.845 kg/m3 and 994.847 kg/m3	1542.8 m/s
308.15 K, m1 = 0.5001	995.067 kg/m3 and 995.065 kg/m3 and 995.068 kg/m3	1548 m/s and 1548.1 m/s
308.15 K, m1 = 0.6007	995.297 kg/m3 and 995.296 kg/m3 and 995.298 kg/m3	1553.2 m/s and 1553.1 m/s
318.15 K, m1 = 0.1001	990.368 kg/m3 and 990.367 kg/m3	1541.5 m/s and 1541.4 m/s
318.15 K, m1 = 0.2006	990.531 kg/m3 and 990.532 kg/m3 and 990.533 kg/m3	1546.4 m/s and 1546.3 m/s
318.15 K, m1 = 0.2997	990.701 kg/m3 and 990.7 kg/m3	1551 m/s
318.15 K, m1 = 0.4021	990.883 kg/m3 and 990.882 kg/m3	1555.6 m/s and 1555.7 m/s
318.15 K, m1 = 0.5001	991.06 kg/m3 and 991.057 kg/m3 and 991.058 kg/m3	1559.9 m/s and 1560 m/s
318.15 K, m1 = 0.6007	991.242 kg/m3 and 991.241 kg/m3	1564.2 m/s and 1564.3 m/s
